What was measured:
[1] = test system: caterpillars of the army worm (Spodoptera frugiperda); assay: Spodoptera frugiperda test; format: in vivo; settings: 100 ppm, cabbage leaves dipped
Method: (§1) To produce a suitable preparation of active compound, 1 part by weight of active compound is mixed with the stated amounts of solvent and emulsifier, and the concentrate is diluted with emulsifier-containing water to the desired concentration.
Cabbage leaves (Brassica oleracea) are treated by being dipped into the preparation of active compound of the desired concentration and are populated with caterpillars of the army worm (Spodoptera frugiperda) while the leaves are still moist.
After the desired period of time, the kill in % is determined. 100% means that all caterpillars have been killed; 0% means that none of the caterpillars have been killed. The kill rates determined are calculated using the Colby formula (see page 32).

[2] = test system: larvae of the mustard beetle (Phaedon cochleariae); assay: Phaedon larvae test; format: in vivo; settings: 100 ppm, cabbage leaves dipped
Method: as §1
Cabbage leaves (Brassica oleracea) are treated by being dipped into the preparation of active compound of the desired concentration and are populated with larvae of the mustard beetle (Phaedon cochleariae) while the leaves are still moist.
After the desired period of time, the kill in % is determined. 100% means that all beetle larvae have been killed; 0% means that none of the beetle larvae have been killed. The kill rates determined are calculated using the Colby formula (see page 32).

## Cc1cc(C)c(C2=C(OC(=O)CC(C)(C)C)C3(CCCC3)OC2=O)c(C)c1 [Compound (I-b-1)]
[1]
  Kill rate in % after 6 d: 5%
[2]
  Kill rate in % after 6 d: 30%

Reference: patent US7795303B2, “Active agents combination exhibiting insecticidal and acaricide properties” (Bayer CropScience AG, priority 2003, dated 2010)
